From US20250011316A1, “PEROXIREDOXIN 3 INHIBITORS AND METHODS OF USE FOR TREATING CANCER” (Wake Forest University Health Sciences, priority 2022, published 2025)
pEC50: −log10 of the molar value. ≈ marks a conversion by molar mass, not a printed value. Like-named read-outs stand apart in the source and are kept apart here.

Legend:
[1] = test system: human SK—OV-3 ovarian cancer cells; experiment: Cellular Activity Assay (cytotoxicity, crystal violet); assay type: cell-based; conditions: SK—OV-3 cells, treated for 48 hr, 0.1-100 μM, crystal violet absorbance at 540 nm
From the text: (§1) To test the activity of compounds, two complimentary assays were used as described below. The Biochemical PRX3 Inhibition Assay tests the ability of each compound to crosslink PRX3 in a simple, in vitro system. In the Cellular Activity Assay, we are testing the ability of compounds to kill SK—OV-3 ovarian cancer cells.
The Cellular Activity Assay measures the EC50 of each compound in human SK—OV-3 ovarian cancer cells TS to be taken into the cell, transported to the mitochondria, and crosslink PRX3.
The cytotoxicity of compounds was measured as described in Nelson et al. (2021) Antioxidants (Basel) 10, 150; Cunniff et al. (2015) PloS one 10, e0127310; and Newick et al. (2012) PloS one 7, e39404. SK—OV-3 is an adherent, epithelial, adenocarcinoma cell line obtained from ATCC (ref #: HTB-77). SK—OV-3 cells are resistant to the commonly used chemotherapeutics, cis-platinum and doxorubicin. For this […], SK—OV-3 cells were plated in a 96-well plate. After 24 h recovery, the cells were treated for 48 hr with multiple concentrations of each compound ranging from 0.1-100 μM.
Cells were washed with PBS to remove dead cells and the remaining live cells were fixed with 3.0% formaldehyde and stained with 0.1% crystal violet. The amount of crystal violet was determined by reading the absorbance at 540 nm (crystal violet dye dissolved in 100% methanol) using a plate reader. The signal for crystal violet dye is proportional to the biomass of remaining live cells. GraphPad Prism9 software was used to calculate the effective inhibitory concentration (EC50) of test compounds. Results for each compound, are normalized to the amount of cells in control wells treated with the equivalent concentration of DMSO (negative control). TS or Compound 4 were included in each set of assays as a positive control.

[2] = Solubility Assay (HPLC); assay type: physicochemical; conditions: 20 mM HEPES, 100 mM NaCl, pH 7.5, 18-24 hours at ambient temperature
Experimental: A 20 mM stock solution was made for each compound in DMSO. To measure solubility, 0.03-0.05 mL of the stock was added to 0.27 mL 20 mM HEPES, 100 mM NaCl, pH 7.5. The solution was mixed and rotated 18-24 hours at ambient temperature. The next day, solutions were centrifuged for 10 min at 20,000×g at […] to remove insoluble, solid material. Next, 100 μL of the supernatant containing the soluble compound was added to 900 μL DMSO and High Performance Liquid Chromatography was performed as described in Table 1 and either HIPLC gradient 1 (Table 2) or HIPLC gradient 2 (Table 3). For each analog, a 200 μM standard and a 20 μM standard were prepared and run in parallel (standards were dissolved completely in […]). The amount ofLcompound in the experimental sample was calculated by comparing the area under the curve for compound peak to the area for the closest standard and correcting for dilution.

[3] = biological target: T1, purified human PRX3 (Homo sapiens, UniProt P30048); experiment: Biochemical PRX3 Inhibition Assay (non-reducible crosslink by SDS PAGE + single adduct by MALDI-TOF MS); conditions: 100 μM PRX3 with TRX2/thioredoxin reductase/NADPH system and hydrogen peroxide, 1-2 hr at 37° C.
T1 construct: made in house
T1 sequence (P30048 62-256): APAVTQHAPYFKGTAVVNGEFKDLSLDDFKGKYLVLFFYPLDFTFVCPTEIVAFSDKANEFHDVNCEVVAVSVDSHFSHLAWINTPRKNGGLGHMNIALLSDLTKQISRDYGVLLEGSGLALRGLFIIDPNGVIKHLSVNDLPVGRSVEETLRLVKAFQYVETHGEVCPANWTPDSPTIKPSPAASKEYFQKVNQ
From the text: The compounds described herein generally react with two essential cysteine residues in the mitochondrial peroxidase PRX3, leading to the formation of a non-reducible, covalent crosslink of two PRX3 monomers. This crosslink inactivates PRX3. Increased PRX3 crosslink is associated with mitochondrial stress, increased cell death in cell models of malignant mesothelioma and is associated with decreased tumor volume in a mouse model. Cunniff et al. (2015) PloS one 10, e0127310.
as §1
This assay tests the ability of each compound to form a covalent adduct with PRX3. The assay is performed as described in Nelson et al. (2021) Antioxidants (Basel) 10, 150; and Cunniff et al. (2015) PloS one 10, e0127310, and follows the appearance of non-reducible PRX3 crosslinks by SDS PAGE gel electrophoresis and follows the appearance of single PRX3 adducts by mass spectrometry. For this assay, purified human PRX3, hydrogen peroxide (the PRX3 substrate) and all the components required to enable PRX3 to catalytically cycle (thioredoxin-thioredoxin reductase-NAPDH system) are included (details below).
The biochemical PRX3 Inhibition assay contains 100 μM PRX3, 50 μM human TRX2, 0.5 μM mouse thioredoxin reductase, and a NADPH regenerating system composed of 3.2 mM glucose 6-phosphate, 3.2 U/ml glucose 6-phosphate dehydrogenase and 0.4 mM NADPH. Samples are incubated for 1-2 hr at 37° C. with either 0.2 mM TS (positive control), compounds or an equivalent volume of DMSO (negative control). During this incubation, hydrogen peroxide is added to induce turnover of PRX3. Reactions are stopped by the addition of a buffer containing 100 mM dithiothreitol (to break disulfide bonds) and SDS (detergent to denature proteins). NADPH, Glucose 6-Phosphate, and glucose 6-phosphate dehydrogenase were purchased from Sigma Aldrich. PRX3, thioredoxin, and thioredoxin reductase were all purified to >98% purity in the Lowther laboratory according to protocols referenced in Nelson et al. (2021) Antioxidants (Basel) 10, 150; and Cunniff et al. (2015) PloS one 10, e0127310.
To measure the amount of PRX3 crosslink, proteins in the reaction were separated by SDS-polyacrylamide gel electrophoresis and stained for total protein using GelCode Blue (Life Technologies). The amount of unmodified PRX3 and TS-PRX3 crosslink was measured by densiometric analysis of the signal for the PRX3 band running at the MW of a PRX3 crosslink (˜46 kDa) compared to the PRX3 signal at the MW of the un-modified PRX3 (−23 kD).
To measure covalent adduct formation on a single PRX3 monomer, each reaction was exchanged into a mass spectrometry compatible buffer containing 40 mM ammonium citrate, pH 8.3 made in HPLC water. Sample was mixed 1:1 with a matrix solution containing 30 mg/mL sinapinic acid in 70% (vol/vol) acetonitrile, 0.2% formic acid and spotted to onto the sample plate. PRX3 mass was measured by MALDI-TOF MS analysis on a Bruker Daltonics MALDI-TOF MS spectrometer. Spectra were analyzed in FLEXAnalysis Software. The intensity of the reduced PRX3 peak (SH) and intensity of the analog adduct peak was determined and corrected for background signal at the adduct peak in the DMSO control. The fraction of single analog adduct in the monomer peak was determined by dividing the intensity of the adduct peak by the summed intensity of the SH and adduct peaks.

[4] = HEPES/NaCl buffer, aqueous with cosolvent or surfactant or cyclodextrin, kinetic from dmso stock, read-out: Solubility

Row | SMILES | PRX3 Inhibition (Crosslink + Mono-adduct) [3] | solubility [2, 4] [µM] | pEC50 [1] | solubility [2] | pEC50 ([1]; Homo sapiens) | pEC50 ([1]; Homo sapiens, SK-OV-3, 48 h)
1 | C=C(NC(=O)c1csc(-c2ccc(CNC(=O)CCCCCNC(=O)OC(C)(C)C)cc2)n1)C(=O)NC(=C)C(=O)OC [Compound 44, Methyl 2-(2-(2-(4-((6-((tert-butoxycarbonyl)amino)hexanamido)methyl)phenyl)thiazole-4-carboxamido)acrylamido)acrylate] | +++ (>90%) |  | 5.00 to 6.00 | + (<0.1 mM) |  | 
2 | C=C(NC(=O)c1csc(-c2ccc(CNC(=O)COCCOC)cc2)n1)C(=O)NC(=C)C(=O)OC [Compound 35, Methyl 2-(2-(2-(4-((2-(2-methoxyethoxy)acetamido)methyl)phenyl)thiazole-4-carboxamido)acrylamido)acrylate] | +++ (>90%) | 100 to 1000 (≈ 50.3 to 503 µg/mL) |  |  | 5.00 to 6.00 | 
3 | C=C(NC(=O)c1csc(-c2cccc(CNC(=O)OC(C)(C)C)c2)n1)C(=O)NC(=C)C(=O)OC [Compound 43, Methyl 2-(2-(2-(3-(((tert-butoxycarbonyl)amino)methyl)phenyl)thiazole-4-carboxamido)acrylamido)acrylate] | +++ (>90%) | < 100 |  |  | 5.00 to 6.00 | 
4 | C=C(NC(=O)c1csc(-c2ccc(CNC(=O)CCCCCCl)cc2)n1)C(=O)NC(=C)C(=O)OC [Compound 37, Methyl 2-(2-(2-(4-((6-chlorohexanamido)methyl)phenyl)thiazole-4-carboxamido)acrylamido)acrylate] | + (5-50%) | < 100 |  |  | 5.00 to 6.00 | 
5 | C=C(NC(=O)c1csc(-c2ccc(CNC(=O)C3CCOCC3)cc2)n1)C(=O)NC(=C)C(=O)OC [Compound 36, Methyl 2-(2-(2-(4-((tetrahydro-2H-pyran-4-carboxamido)methyl)phenyl)thiazole-4-carboxamido)acrylamido)acrylate] | +++ (>90%) | < 100 |  |  | 5.00 to 6.00 | 
6 | C=C(NC(=O)c1csc(N2CCN(C(=O)COCCOC)CC2)n1)C(=O)NC(=C)C(=O)OC [Compound 47, Methyl 2-(2-(2-(4-(2-(2-methoxyethoxy)acetyl)piperazin-1-yl)thiazole-4-carboxamido)acrylamido)acrylate] | ++ (50-90%) | > 1000 |  |  |  | 4.00 to 4.60
7 | C=C(NC(=O)c1csc(-c2ccc(CNC(=O)CCNC(=O)OC(C)(C)C)cc2)n1)C(=O)NC(=C)C(=O)OC [Compound 38, Methyl 2-(2-(2-(4-((3-((tert-butoxycarbonyl)amino)propanamido)methyl)phenyl)thiazole-4-carboxamido)acrylamido)acrylate] | ++ (50-90%) | < 100 |  |  | 5.00 to 6.00 | 
8 | C=C(NC(=O)c1csc(-c2ccc(CNC(=O)CCCCCN=[N+]=[N-])cc2)n1)C(=O)NC(=C)C(=O)OC [Compound 39, Methyl 2-(2-(2-(4-((6-azidohexanamido)methyl)phenyl)thiazole-4-carboxamido)acrylamido)acrylate] | ++ (50-90%) | < 100 |  |  | 5.00 to 6.00 | 
9 | C=C(NC(=O)c1csc(N2CCC(C(=O)NC3CCOCC3)CC2)n1)C(=O)NC(=C)C(=O)OC [Compound 53, Methyl 2-(2-(2-(4-((tetrahydro-2H-pyran-4-yl)carbamoyl)piperidin-1-yl)thiazole-4-carboxamido)acrylamido)acrylate] | +++ (>90%) | < 100 |  |  | 4.60 to 5.00 | 

Further lines, with some results ahead:

Row | PRX3 Inhibition (Crosslink + Mono-adduct) [3] | solubility [2, 4] [µM] | SMILES | pEC50 [1] | solubility [2] | pEC50 ([1]; Homo sapiens) | pEC50 ([1]; Homo sapiens, SK-OV-3, 48 h)
10 | ++ (50-90%) | < 100 | C=C(NC(=O)c1csc(-c2ccc(CNC(=O)OCC3CCOCC3)cc2)n1)C(=O)NC(=C)C(=O)OC [Compound 45, Methyl 2-(2-(2-(4-(((((tetrahydro-2H-pyran-4-yl)methoxy)carbonyl)amino)methyl)phenyl)thiazole-4-carboxamido)acrylamido)acrylate] |  |  | 5.00 to 6.00 | 
11 | +++ (>90%) | < 100 | C=C(NC(=O)c1csc(N2CCC(CNC(=O)C3CCOCC3)CC2)n1)C(=O)NC(=C)C(=O)OC [Compound 52, methyl 2-(2-(2-(4-((tetrahydro-2H-pyran-4-carboxamido)methyl)piperidin-1-yl)thiazole-4-carboxamido)acrylamido)acrylate] |  |  | 4.60 to 5.00 | 
12 | ++ (50-90%) | < 100 | C=C(NC(=O)c1csc(-c2ccc(NC(=O)CCCCCCl)cc2)n1)C(=O)NC(=C)C(=O)OC [Compound 48, Methyl 2-(2-(2-(4-(6-chlorohexanamido)phenyl)thiazole-4-carboxamido)acrylamido)acrylate] |  |  | 5.00 to 6.00 | 
13 | +++ (>90%) | 100 to 1000 (≈ 49.2 to 492 µg/mL) | C=C(NC(=O)c1csc(N2CCC(NC(=O)C3CCOCC3)CC2)n1)C(=O)NC(=C)C(=O)OC [Compound 46, Methyl 2-(2-(2-(4-(tetrahydro-2H-pyran-4-carboxamido)piperidin-1-yl)thiazole-4-carboxamido)acrylamido)acrylate] |  |  | 5.00 to 6.00 | 
